Laboratory results from patent publication US20090137550A1, “Novel Compounds” (Glaxo Group Limited, priority 2005, published 2009).

Key:
[1] = test system: IL-6, IL-8, GM-CSF, RANTES and COX-2; conditions: a number of different cell types; cited from earlier work
[2] = test system: fibronectin and thrombospondin; conditions: Laping et al., 2002; cited from earlier work
[3] = test system: LPS-stimulated cytokine production (IL-1beta and/or TNFalpha); assay: LPS-Stimulated Cytokine Production in Human Whole Blood; type: cell-based; conditions: 50 ng/ml LPS, 4 hour incubation, IL-1beta and/or TNFalpha by ELISA
Procedure: Assay: Test compound concentrations were prepared at 10× concentrations and LPS prepared at 1 ug/ml (final conc. of 50 ng/ml LPS) and added in 50 uL volumes to 1.5 mL eppendorf tubes. Heparinized human whole blood was obtained from healthy volunteers and was dispensed into eppendorf tubes or multiwell plates containing compounds and LPS in 0.2-0.4 mL volumes and the tubes incubated at 37 C. In some studies, compound was incubated with blood for up to 30 min prior to addition of LPS. Following a 4 hour incubation, the tubes or plates were centrifuged to remove cells and plasma was withdrawn and frozen at −80 C. Cytokine measurement: IL-Ibeta and/or TNFalpha were quantified using a standardized ELISA, or similar technology. Concentrations of IL-1beta or TNFalpha were determined from standard curves of the appropriate cytokine and IC50 values for test compound (concentration that inhibited 50% of LPS-stimulated cytokine production) were calculated by linear regression analysis.

[4] = test system: TNF-stimulated IL8 production by human neutrophils; assay: TNF-Stimulated IL-8 Production from Human Neutrophils; type: cell-based; conditions: TNF 100 ng/ml, approximately 20 hrs, IL-8 by ELISA

C[S+]([O-])c1ccc(-c2nc(-c3ccncc3)c(-c3ccc(F)cc3)[nH]2)cc1 (centres unmarked) [SB-203580]
decreasing the synthesis of pro-inflammatory proteins including IL-6, IL-8, GM-CSF, RANTES and COX-2 [1]: effective

COc1nccc(-c2c(-c3ccc(F)cc3)ncn2C2CCNCC2)n1 [SB-242235]
inhibition of TGF-β-induced increases in fibronectin and thrombospondin [2]: inhibited

Fc1ccc(-c2nc3n(c2-c2ccncc2)CCS3)cc1 [SK&F 86002]
decreasing the synthesis of pro-inflammatory proteins including IL-6, IL-8, GM-CSF, RANTES and COX-2 [1]: effective

Cc1cc(F)ccc1-c1nc(NCCNC(N)=NC#N)nc2c1ccc(=O)n2-c1c(F)cccc1F [Example 10]
IC50 (concentration that inhibited 50% of LPS-stimulated cytokine production) [3]: active
IC50, TNF-stimulated IL-8 production [4]: active
